In series [1] the target is T1, TFR-PR (Human immunodeficiency virus type 1, UniProt P03366). The following applies: cited from earlier work.
For series [2], the system named is TFR-PR20. To be noted: cited from earlier work.
The target of series [3] is T1, TFR-PR. The series can be described thus: Inhibition of N-terminal autoprocessing of wild-type precursor in E. coli. The format is cell-based, HIV-1.
The conditions of series [4]: blood–brain barrier penetration; cited from earlier work.
Series [5] concerns highly darunavir resistant strain of HIV-1. To be noted: strain selected in the laboratory; cited from earlier work.
In series [6] the target is PR20 (Human immunodeficiency virus type 1, UniProt P03366, D530N/I547V/I584V, form not given). In words: Kinetic assay of PR20 proteolytic activity with fluorogenic substrate. To be noted: versus darunavir KL 41 nM. It counts as biochemical, HIV-1.
The subject of series [7] is TFR-PR20. The series can be described thus: Inhibition of N-terminal autoprocessing of mutant precursor in E. coli. The format is cell-based, HIV-1. To be noted: tests up to 100 μM concentration.
For series [8], the system named is PR20. In words: Kinetic assay of PR20 proteolytic activity with fluorogenic substrate. It counts as biochemical, HIV-1. The following applies: Ki PR20 / Ki wild-type PR.
The test system of series [9] is PR20. The following applies: compared with darunavir or wild-type PR; cited from earlier work.

As for `CC(C)(C)NC(=O)[C@@H]1C[C@@H]2CCCC[C@@H]2CN1C[C@@H](O)[C@H](Cc1ccccc1)NC(=O)[C@H](CC(N)=O)NC(=O)c1ccc2ccccc2n1` [saquinavir], the “inhibition of autoprocessing of TFR-PR relative to other clinical protease inhibitors (in words)” value on TFR-PR [1] was “inhibited most effectively”.

As for `CC(C)CN(C[C@@H](O)[C@H](Cc1ccccc1)NC(=O)O[C@H]1CO[C@H]2OCC[C@H]21)S(=O)(=O)c1ccc(N)cc1` [darunavir], at TFR-PR [1], the “inhibition of autoprocessing of TFR-PR relative to other clinical protease inhibitors (in words)” value is listed as “inhibited most effectively”. The “inhibition of autoprocessing of PR20-containing precursors (in words)” value in the series with TFR-PR20 [2] is recorded as “like darunavir, neither GRL-02031A nor GRL-0519A inhibits the autoprocessing”.

The IC50 is the point on the concentration scale where inhibition reaches its midpoint. Consider `CC(C)CN(C[C@@H](O)[C@H](Cc1ccccc1)NC(=O)O[C@H]1CO[C@H]2OCC(F)(F)[C@H]21)S(=O)(=O)c1ccc(N)cc1` [GRL-5010A], for which the IC50 on TFR-PR [3] was 1000 to 2000 nM. In addition, the “fold higher apparent permeability coefficient (Papp) than darunavir” value in [4] is on record as 6.5 fold. For the same compound, the “antiviral activity against highly darunavir resistant HIV-1 (in words)” value in [5] is “moderate antiviral activity”. Moreover, the “fold lower Ki for PR20 relative to darunavir binding affinity (KL)” value at PR20 [6] is given as “about 2 fold”. Moreover, the “inhibition of autoprocessing of TFR-PR20 precursor” value in the series on TFR-PR20 [7] was “no significant improvement was observed in the inhibition”.

For `COC(=O)N[C@H](C(=O)N[C@@H](Cc1ccccc1)[C@@H](O)CN(Cc1ccc(-c2ccccn2)cc1)NC(=O)[C@@H](NC(=O)OC)C(C)(C)C)C(C)(C)C` [atazanavir], the “inhibition of autoprocessing of TFR-PR relative to other clinical protease inhibitors (in words)” value on TFR-PR [1] is on record as “inhibited most effectively”.

On to `COc1ccc(S(=O)(=O)N(CC(C)C)C[C@@H](O)[C@H](Cc2ccccc2)NC(=O)O[C@H]2CO[C@H]3OC[C@H](OC)[C@H]32)cc1` [GRL-4410A], for which, on TFR-PR [3], the half-maximal inhibitory concentration (IC50) fell in the range of 1000 to 2000 nM. Also, the “fold weaker inhibition (Ki) of PR20 than wild-type PR” value in the series with PR20 [8] stood at 1000 fold. Besides, the “inhibition of autoprocessing of TFR-PR20 precursor” value with TFR-PR20 [7] is given as “no significant improvement was observed in the inhibition”.

For the compound `COc1ccc(S(=O)(=O)N(C[C@H]2CCC(=O)N2)C[C@@H](O)[C@H](Cc2ccccc2)NC(=O)O[C@@H]2C[C@@H]3CCO[C@@H]3C2)cc1` [GRL-02031A], the “inhibition of autoprocessing of PR20-containing precursors (in words)” value in the series with TFR-PR20 [2] was “neither GRL-02031A nor GRL-0519A inhibits the autoprocessing”. Besides, the “binding affinity for PR20 (in words)” value with PR20 [9] was “weaker affinity for PR20”.

Values taken from article PMC4522690 (Journal of medicinal chemistry, 2015).
